From PMC3425544, “The S100A10 Subunit of the Annexin A2 Heterotetramer Facilitates L2-Mediated Human Papillomavirus Infection” (PLoS ONE, 2012)

Experiments:
[1] = system: Bovine Serum Albumin (BSA); assay: EPR binding of L2 peptide to BSA (specificity control); conditions: 20 µM peptide, 100 µM BSA
Excerpt: The L2_108–126 peptides used in our EPR studies were synthesized with a cysteine at the N-terminus, and followed by a spacer of 3 physiological amino acids (C-IVS) preceding the canonical L2_108–126 and L2 scrambled sequences (C-IVS-LVEETSFIDAGAPTSVPSI and C-IVS-IESPVSDTALGTPEIFVSA respectively). Peptides were combined with 8× molar excess paramagnetic label (1-oxyl-2, 2, 5, 5-tetramethyl-Δ3-pyrroline-3-methyl) (R1) methanethiosulfonate (MTSL), (Toronto Research Chemicals, Canada) and left to react overnight at 4°C. Free label was removed by gel filtration (PD10 GE, United Kingdom). All peptides were solubilized into HEPES buffer. […] Binding interactions were examined by combining paramagnetically-labeled L2 peptide with A2t, BSA, ANXA2, or S100A10 (20 µM, 100 µM, 100 µM, 100 µM, and 100 µM respectively) in 10 µL volumes of the HEPES buffer, confined by glass capillaries, and measured at room temperature over a period of 24 hours using a Bruker EMX X-band EPR spectrometer. […] To quantify the amount of bound peptide spectra of all tested proteins in combination with the L2_108–126 or ScrL2 peptides were compared to the spectra of L2_108–126 or ScrL2 peptides alone in solution using a spectra analyzing software (EPR 130, University of California, Los Angeles). […]

HepG2 cell line = conditions: ref [28]; cited from earlier work
Excerpt: Nonetheless, the link between HSV and H ...

[2] = system: surface of HeLa, SiHa and CaSki cells; conditions: ref [28], cited from earlier work
annexin A2 = assay: EPR binding of L2 peptide to annexin A2
Description: (§1) Recombinant annexin A2 was expressed in BL21(DE3) Escherichia coli cells and purified using reversible Ca^2+-dependent binding to negatively charged phospholipid vesicles followed by size exclusion chromatography. A pET23A vector containing the S100A10 sequence (a gift from Volker Gerke) was expressed in BL21(DE3) cells as previously described. Both proteins were stored at 4°C in 20 mM HEPES buffer at pH 7.4, containing 100 mM NaCl with the addition of 1 mM dithiothreitol. Concentrations of all proteins and peptides, including the A2t complex, were determined using bicinchoninic acid assays (Pierce Thermo Scientific, Rockford, IL) compared to measured absorbance of albumin standards at 562 nm. Purified annexin A2 and S100A10 were combined at a molar ratio of 1∶1 and concentrated to over 8 µg/µl. The mixture was incubated overnight at 4°C, and then loaded onto a superdex 200 10/300 GL (GE Healthcare USA) column equilibrated in the previously mentioned HEPES buffer. The eluted A2t peak was collected and subjected to peptide binding assays.
The L2_108–126 peptides used in our EPR studies were synthesized with a cysteine at the N-terminus, and followed by a spacer of 3 physiological amino acids (C-IVS) preceding the canonical L2_108–126 and L2 scrambled sequences (C-IVS-[…] and C-IVS-[…] respectively). Peptides were combined with 8× molar excess paramagnetic label (1-oxyl-2, 2, 5, 5-tetramethyl-Δ3-pyrroline-3-methyl) (R1) methanethiosulfonate (MTSL), (Toronto Research Chemicals, Canada) and left to react overnight at 4°C. Free label was removed by gel filtration (PD10 GE, United Kingdom). All peptides were solubilized into HEPES buffer. For competition assays, the scrambled peptide was non-paramagnetic labeled with an N-acetylated MTSL paramagnetic-label analog (1-acetyl-2,2,5,5- tetramethyl-Δ3-pyrroline-3-methyl) (R1′) at an 8× molar excess to emulate the paramagnetic label on control peptides. Binding interactions were examined by combining paramagnetically-labeled L2 peptide with A2t, BSA, ANXA2, or S100A10 (20 µM, 100 µM, 100 µM, 100 µM, and 100 µM respectively) in 10 µL volumes of the HEPES buffer, confined by glass capillaries, and measured at room temperature over a period of 24 hours using a Bruker EMX X-band EPR spectrometer. For the cysteine blocked S100A10, S100A10 was treated with R1′ and excess label was removed via gel filtration (see above) before the addition of paramagnetic labeled peptides. […] To quantify the amount of bound peptide spectra of all tested proteins in combination with the L2_108–126 or ScrL2 peptides were compared to the spectra of L2_108–126 or ScrL2 peptides alone in solution using a spectra analyzing software (EPR 130, University of California, Los Angeles). […]

S100A10 subunit of A2t = assay: EPR binding of L2 peptide to S100A10
Description: as §1
The L2_108–126 peptides used in our EPR studies were synthesized with a cysteine at the N-terminus, and followed by a spacer of 3 physiological amino acids (C-IVS) preceding the canonical L2_108–126 and L2 scrambled sequences (C-IVS-[…] and C-IVS-[…] respectively). Peptides were combined with 8× molar excess paramagnetic label (1-oxyl-2, 2, 5, 5-tetramethyl-Δ3-pyrroline-3-methyl) (R1) methanethiosulfonate (MTSL), (Toronto Research Chemicals, Canada) and left to react overnight at 4°C. Free label was removed by gel filtration (PD10 GE, United Kingdom). All peptides were solubilized into HEPES buffer. For competition assays, the scrambled peptide was non-paramagnetic labeled with an N-acetylated MTSL paramagnetic-label analog (1-acetyl-2,2,5,5- tetramethyl-Δ3-pyrroline-3-methyl) (R1′) at an 8× molar excess to emulate the paramagnetic label on control peptides. Binding interactions were examined by combining paramagnetically-labeled L2 peptide with A2t, BSA, ANXA2, or S100A10 (20 µM, 100 µM, 100 µM, 100 µM, and 100 µM respectively) in 10 µL volumes of the HEPES buffer, confined by glass capillaries, and measured at room temperature over a period of 24 hours using a Bruker EMX X-band EPR spectrometer. For the cysteine blocked S100A10, S100A10 was treated with R1′ and excess label was removed via gel filtration (see above) before the addition of paramagnetic labeled peptides. The experiments were done in triplicate with measurements taken at 12 db, in 5 scan intervals. All spectra were normalized to the same number of scans. To quantify the amount of bound peptide spectra of all tested proteins in combination with the L2_108–126 or ScrL2 peptides were compared to the spectra of L2_108–126 or ScrL2 peptides alone in solution using a spectra analyzing software (EPR 130, University of California, Los Angeles). By subtracting the alone peptide spectra from that of the combined samples we derive the spectra of the bound spectra, and based on double integration, relate this spectra to a concentration of the peptide that bound to the target protein.

In the case of “C-IVS-LVEETSFIDAGAPTSVPSI [L2_108–126, HPV16 L2 aa 108–126 peptide with N-terminal cysteine and IVS spacer]”, the “binding to BSA” value [1] is given as “does not bind BSA in a significant manner”, the “binding to A2t-deficient HepG2 cells vs cervical cancer cell lines” value (HepG2 cell line) is given as “bind significantly less” and the “binding to cell lines” value ([2]; SiHa, CaSki, [29] (b5), [23], [28]) is given as “can bind to the surface of several human cell lines”. The “binding to HeLa cells with substitutions at aa 108–111” value ([2]; aa 108–111 substituted (LVEE to GGDD)) was “decrease the binding”, the “relative % bound to annexin A2” value (annexin A2; 20 µM peptide, 100 µM ANXA2, mean of three separate experiments) was 23.6% and the “interaction with annexin A2 subunit” value (annexin A2; discussion) was “minimal interaction”. The “relative % bound to annexin A2 in presence of ScrL2” value (annexin A2; scrambled peptide 5∶1, mean of three separate experiments) was 17.7%, the “interaction with S100A10 subunit” value (S100A10 subunit of A2t; EPR, discussion) was “very strong interaction” and the “relative % bound to S100A10” value (S100A10 subunit of A2t; EPR, 20 µM peptide, 100 µM S100A10, mean of three separate experiments) was 92.5%. The “relative % bound to cysteine-blocked S100A10” value (S100A10 subunit of A2t; EPR, S100A10 cysteine-blocked with R1′ (αCys-S100A10), paramagnetic-labeled peptide, mean of three separate experiments) was 73.1%, the “relative % bound to S100A10 in presence of ScrL2” value (S100A10 subunit of A2t; EPR, scrambled peptide 5∶1, mean of three separate experiments) was 91.0% and the “relative binding constant (K), S100A10” value (S100A10 subunit of A2t; from EPR percent bound, association constant) was 150000 M⁻¹.
